Assay results reported in US9452990B2, “Complement pathway modulators and uses thereof” (NOVARTIS AG, priority 2012, dated 2016).
Counter-ions that a name gives are not always drawn.

The molecules below were run against human complement factor B (CVF-Bb complex) (Homo sapiens (Human), UniProt P00751) (assay: Human Complement Factor B ELISA Assay). Details: CVF-Bb complex 3 nM, 1 hour preincubation with compound at room temperature, human C3 substrate 1 μM, C3a quantified by ELISA; read-out: Factor B IC50.
Format: biochemical
Outline: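 Preformed CVF-Bb complex (3 nM; cobra venom factor with recombinant human factors B and D) preincubated with compound 1 h, RT, in PBS pH 7.4, 10 mM MgCl2, 0.05% CHAPS. Plasma C3 added at 1 μM final for 1 h, then stopped; C3a product measured by ELISA, IC50 from % inhibition.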
For `COc1cc2c(N)nc(N3C[C@@H](C)N(C(=O)C[C@@H](N)c4ccc(F)cc4)C[C@@H]3C)nc2c(F)c1OC` [Example 74, (R)-3-amino-1-[(2R,5S)-4-(4-amino-8-fluoro-6,7-dimethoxy-quinazolin-2-yl)-2,5-dimethyl-piperazin-1-yl]-3-(4-fluorophenyl)-propan-1-one], the IC50 was 50 nM.
For `COc1cc2c(N)nc(N3CCN(C(=O)C[C@@H](N)c4ccccc4)CC3)nc2c(C#N)c1OC` [Example 75, 4-Amino-2-[4-((R)-3-amino-3-phenyl-propionyl)-piperazin-1-yl]-6,7-dimethoxy-quinazoline-8-carbonitrile], the IC50 was 760 nM.
In the case of `COc1cc2c(N)nc(N3CCN(C(=O)C[C@@H](N)c4ccc(F)cc4)CC3)nc2c(C#N)c1OC` [Example 76, 4-Amino-2-{4-[(R)-3-amino-3-(4-fluoro-phenyl)-propionyl]-piperazin-1-yl}-6,7-dimethoxy-quinazoline-8-carbonitrile], the IC50 is reported as 100 nM.
With `CN[C@H](CC(=O)N1CCN(c2nc(N)c3cc(OC)c(OC)c(F)c3n2)CC1)c1ccc(C#N)cc1` [Example 77, (R)-4-(3-(4-(4-amino-8-fluoro-6,7-dimethoxyquinazolin-2-yl)piperazin-1-yl)-1-(methylamino)-3-oxopropyl)benzonitrile] the IC50 was 4 nM.
`CN[C@H](CC(=O)N1CCN(c2nc(N)c3cc(OC)c(OC)c(F)c3n2)CC1)C1CCCCC1` [Example 78, (R)-1-(4-(4-amino-8-fluoro-6,7-dimethoxyquinazolin-2-yl)piperazin-1-yl)-3-cyclohexyl-3-(methylamino)propan-1-one] showed an IC50 of 80 nM.
In the case of `[2H]C([2H])([2H])N[C@H](CC(=O)N1CCN(c2nc(N)c3cc(OC)c(OC)c(F)c3n2)CC1)c1ccccc1` [Example 79, (R)-1-[4-(4-Amino-8-fluoro-6,7-dimethoxy-quinazolin-2-yl)-piperazin-1-yl]-3-d^3-methylamino-3-phenyl-propan-1-one hydrochloride], the IC50 is reported as 50 nM.
For `[2H]C([2H])([2H])N[C@H](CC(=O)N1CCN(c2nc(N)c3cc(OC)c(OC)c(F)c3n2)CC1)c1ccc(F)cc1` [Example 80, (R)-1-(4-(4-Amino-8-fluoro-6,7-dimethoxyquinazolin-2-yl)piperazin-1-yl)-3-(4-fluorophenyl)-3-(d^3-methylamino)propan-1-one hydrochloride], the IC50 was 6 nM.
`COc1cc2c(N)nc(N3CCN(C(=O)C[C@@H](N)c4ccccc4)CC3)nc2c(Br)c1OC` [Example 81, (R)-3-amino-1-(4-(4-Amino-8-bromo-6,7-dimethoxyquinazolin-2-yl)piperazin-1-yl)-3-phenylpropan-1-one] showed an IC50 of 510 nM.
`COc1cc2c(N)nc(N3CCN(C(=O)C[C@@H](N)c4ccc(F)cc4)CC3)nc2c(Cl)c1OC` [Example 82, (R)-3-Amino-1-(4-(4-amino-8-chloro-6,7-dimethoxyquinazolin-2-yl)piperazin-1-yl)-3-(4-fluorophenyl)propan-1-one] was tested, and the IC50 was 1020 nM.
For `COc1cc2nc(N3CCN(C(=O)C[C@@H](N)c4ccc(F)cc4)CC3)nc(N)c2c(F)c1OC` [Example 83, (R)-3-Amino-1-[4-(4-amino-5-fluoro-6,7-dimethoxy-quinazolin-2-yl)-piperazin-1-yl]-3-(4-fluoro-phenyl)-propan-1-one], the IC50 was 30 nM.
In the case of `CCN[C@H](CC(=O)N1CCN(c2nc(N)c3cc(OC)c(OC)c(F)c3n2)CC1)c1ccc(F)cc1` [Example 84, (R)-1-[4-(4-Amino-8-fluoro-6,7-dimethoxy-quinazolin-2-yl)-piperazin-1-yl]-3-ethylamino-3-(4-fluoro-phenyl)-propan-1-one], the IC50 is reported as 6 nM.
`COc1cc2c(N)nc(N3CCN(C(=O)C[C@H](c4ccccc4)N(C)C)CC3)nc2c(F)c1OC` [Example 85, (R)-1-[4-(4-Amino-8-fluoro-6,7-dimethoxy-quinazolin-2-yl)-piperazin-1-yl]-3-dimethylamino-3-phenyl-propan-1-one] showed an IC50 of 80 nM.
Work on `COc1cc2c(N)nc(N3CCN(C(=O)C[C@H](c4ccc(F)cc4)N(C)C)CC3)nc2c(F)c1OC` [Example 86] yielded an IC50 of 40 nM.
`COc1cc2c(N)nc(N3CCN(C(=O)C[C@@H](NC(CF)CF)c4ccc(F)cc4)CC3)nc2c(F)c1OC` [Example 87, (R)-1-(4-(4-amino-8-fluoro-6,7-dimethoxyquinazolin-2-yl)piperazin-1-yl)-3-(1,3-difluoropropan-2-ylamino)-3-(4-fluorophenyl)propan-1-one] gave an IC50 of 40 nM.
`COc1cc2c(N)nc(N3CCN(C(=O)C[C@@H](NCC(F)(F)F)c4ccc(F)cc4)CC3)nc2c(F)c1OC` [Example 88, (R)-1-[4-(4-Amino-8-fluoro-6,7-dimethoxy-quinazolin-2-yl)-piperazin-1-yl]-3-(4-fluoro-phenyl)-3-(2,2,2-trifluoro-ethylamino)-propan-1-one] was tested, and the IC50 was 30 nM.
`COc1cc2c(N)nc(N3CCN(C(=O)C[C@@H](NC(C)C)c4ccc(F)cc4)CC3)nc2c(F)c1OC` [Example 89, (R)-1-[4-(4-Amino-8-fluoro-6,7-dimethoxy-quinazolin-2-yl)-piperazin-1-yl]-3-(4-fluoro-phenyl)-3-isopropylamino-propan-1-one] showed an IC50 of 30 nM.
Molecule `CCN[C@H](CC(=O)N1CCN(c2nc(N)c3cc(OC)c(OC)c(F)c3n2)CC1)c1ccc(C#N)cc1` [Example 90, (R)-4-(3-(4-(4-amino-8-fluoro-6,7-dimethoxyquinazolin-2-yl)piperazin-1-yl)-1-(ethylamino)-3-oxopropyl)benzonitrile] has an IC50 of 1 nM.
Molecule `COc1cc2c(N)nc(N3CCN(C(=O)C[C@@H](NC(C)C)c4ccc(F)c(C#N)c4)CC3)nc2c(F)c1OC` [Example 91, (R)-5-(3-(4-(4-amino-8-fluoro-6,7-dimethoxyquinazolin-2-yl)piperazin-1-yl)-1-(isopropylamino)-3-oxopropyl)-2-fluorobenzonitrile] has an IC50 of 12 nM.
Work on `CCCN[C@H](CC(=O)N1CCN(c2nc(N)c3cc(OC)c(OC)c(F)c3n2)CC1)c1ccc(Cl)s1` [Example 92, (R)-1-(4-(4-amino-8-fluoro-6,7-dimethoxyquinazolin-2-yl)piperazin-1-yl)-3-(5-chlorothiophen-2-yl)-3-(propylamino)propan-1-one] yielded an IC50 of 8 nM.
`COc1cc2c(N)nc(N3CCN(C(=O)C[C@@H](NCC4CC4)c4ccsc4)CC3)nc2c(F)c1OC` [Example 93, (R)-1-(4-(4-amino-8-fluoro-6,7-dimethoxyquinazolin-2-yl)piperazin-1-yl)-3-(cyclopropylmethylamino)-3-(thiophen-3-yl)propan-1-one] showed an IC50 of 4 nM.
For `COCCCN[C@H](CC(=O)N1CCN(c2nc(N)c3cc(OC)c(OC)c(F)c3n2)CC1)c1ccc(F)cc1` [Example 94, (R)-1-(4-(4-amino-8-fluoro-6,7-dimethoxyquinazolin-2-yl)piperazin-1-yl)-3-(4-fluorophenyl)-3-(3-methoxypropylamino)propan-1-one], the IC50 was 6 nM.
Work on `COc1cc2c(N)nc(N3CCN(C(=O)C[C@@H](NC(C)C)c4ccc(C#N)cc4)CC3)nc2c(F)c1OC` [Example 95, (R)-4-(3-(4-(4-amino-8-fluoro-6,7-dimethoxyquinazolin-2-yl)piperazin-1-yl)-1-(isopropylamino)-3-oxopropyl)benzonitrile] yielded an IC50 of 3 nM.
`COc1cc2c(N)nc(N3CCN(C(=O)C[C@H](c4ccc(F)cc4)N4CCC4)CC3)nc2c(F)c1OC` [Example 96, (R)-1-(4-(4-amino-8-fluoro-6,7-dimethoxyquinazolin-2-yl)piperazin-1-yl)-3-(azetidin-1-yl)-3-(4-fluorophenyl)propan-1-one] gave an IC50 of 10 nM.
With `COc1cc2c(N)nc(N3[C@H](C)CN(C(=O)C[C@@H](NC(C)C)c4ccc(C#N)cc4)C[C@@H]3C)nc2c(F)c1OC` [Example 97, 4-((R)-3-((3R,5S)-4-(4-amino-8-fluoro-6,7-dimethoxyquinazolin-2-yl)-3,5-dimethylpiperazin-1-yl)-1-(isopropylamino)-3-oxopropyl)benzonitrile] the IC50 was 11 nM.
Work on `COc1cc2c(N)nc(N3CCN(C(=O)C[C@@H](NCCF)c4ccc(F)cc4)CC3)nc2c(F)c1OC` [Example 98] yielded an IC50 of 6 nM.
For `COc1cc2c(N)nc(N3CCN(C(=O)C[C@H](c4ccc(F)cc4)N4CCCCC4)CC3)nc2c(F)c1OC` [Example 99, (R)-1-[4-(4-Amino-8-fluoro-6,7-dimethoxy-quinazolin-2-yl)-piperazin-1-yl]-3-(4-fluoro-phenyl)-3-piperidin-1-yl-propan-1-one], the IC50 was 6 nM.
Molecule `COCCN[C@H](CC(=O)N1CCN(c2nc(N)c3cc(OC)c(OC)c(F)c3n2)CC1)c1ccc(F)cc1` [Example 100, (R)-1-[4-(4-Amino-8-fluoro-6,7-dimethoxy-quinazolin-2-yl)-piperazin-1-yl]-3-(4-fluoro-phenyl)-3-(2-methoxy-ethylamino)-propan-1-one] has an IC50 of 20 nM.
In the case of `COc1cc2c(N)nc(N3CCN(C(=O)C[C@@H](NC(C)C)c4ccc(F)cn4)CC3)nc2c(F)c1OC` [Example 101, (R)-1-[4-(4-Amino-8-fluoro-6,7-dimethoxy-quinazolin-2-yl)-piperazin-1-yl]-3-(5-fluoro-pyridin-2-yl)-3-isopropylamino-propan-1-one], the IC50 is reported as 13 nM.
`COc1cc2c(N)nc(N3CCN(C(=O)C[C@@H](NCC4(C)COC4)c4ccc(C#N)cc4)CC3)nc2c(F)c1OC` [Example 102] gave an IC50 of 1 nM.
`COc1cc2c(N)nc(N3CCN(C(=O)C[C@H](c4ccc(F)cc4)N4CCCC4)CC3)nc2c(F)c1OC` [Example 103] showed an IC50 of 15 nM.
`COc1cc2c(N)nc(N3CCN(C(=O)[C@@H]4CCc5ccccc5[C@@H]4N)CC3)nc2c(F)c1OC` [Example 104, [4-(4-Amino-8-fluoro-6,7-dimethoxy-quinazolin-2-yl)-piperazin-1-yl]-((1R,2R)-1-amino-1,2,3,4-tetrahydro-naphthalen-2-yl)-methanone] was tested, and the IC50 was 760 nM.
`COc1cc2c(N)nc(N3CCN(C(=O)[C@@H]4CCc5ccccc5[C@@H]4N)C[C@@H]3C)nc2c(F)c1OC` [Example 105, [(S)-4-(4-Amino-8-fluoro-6,7-dimethoxy-quinazolin-2-yl)-3-methyl-piperazin-1-yl]-((1R,2R)-1-amino-1,2,3,4-tetrahydro-naphthalen-2-yl)-methanone] gave an IC50 of 1070 nM.
